Test results taken from patent US10669239B2, “Tetrahydronaphthyl urea derivative” (MOCHIDA PHARMACEUTICAL CO., LTD., priority 2017, dated 2020).

Biological target: human TrkA protein (Homo sapiens (Human), UniProt P04629)
Test: TrkA LanthaScreen Eu Kinase Binding Assay (binding activity for human TrkA protein)
Settings: TrkA enzyme, Kinase Tracer 236, TR-FRET, 60 minutes at room temperature
Method: (Pharmacological Experimental Example 1): Evaluation of Binding Activity for Human TrkA Protein
Measurement was carried out using TrkA LanthaScreen (registered trademark) Eu Kinase Binding Assay (ThermoFisher SCIENTIFIC). To a 384 well plate (Corning), 2.5 μL of the test compound having various concentrations and diluted with Kinase buffer (ThermoFisher SCIENTIFIC) and 2.5 μL of 15 nM TrkA enzyme (ThermoFisher SCIENTIFIC) were added. Moreover, 5 μL of 3 nM Eu-anti-His Tag antibody (ThermoFisher SCIENTIFIC) and 5 μL of 30 nM Kinase (registered trademark) Tracer 236 (ThermoFisher SCIENTIFIC) were added, followed by reaction at room temperature for 60 minutes. After the reaction, the fluorescence intensity of Europium (Emission wavelength 615 nm) and TR-FRET (Emission wavelength 665 nm) with an excitation wavelength of 340 nm were measured with EnVision 2100 (PerkinElmer) to calculate the fluorescence ratio as the amount of the test compound and the TrkA enzyme bonded. The inhibitory activity (IC50 value) of each test compound was calculated with the fluorescence ratio of the well to which a solvent was added instead of the test compound being 0% and the fluorescence ratio of the well without addition of the TrkA protein being 100%.
In Table 1, Compounds 1 to 62 respectively mean Compounds 1 to 62 synthesized in accordance with Examples 1 to 62 described later.

Sequence of human TrkA protein (P04629 33-796): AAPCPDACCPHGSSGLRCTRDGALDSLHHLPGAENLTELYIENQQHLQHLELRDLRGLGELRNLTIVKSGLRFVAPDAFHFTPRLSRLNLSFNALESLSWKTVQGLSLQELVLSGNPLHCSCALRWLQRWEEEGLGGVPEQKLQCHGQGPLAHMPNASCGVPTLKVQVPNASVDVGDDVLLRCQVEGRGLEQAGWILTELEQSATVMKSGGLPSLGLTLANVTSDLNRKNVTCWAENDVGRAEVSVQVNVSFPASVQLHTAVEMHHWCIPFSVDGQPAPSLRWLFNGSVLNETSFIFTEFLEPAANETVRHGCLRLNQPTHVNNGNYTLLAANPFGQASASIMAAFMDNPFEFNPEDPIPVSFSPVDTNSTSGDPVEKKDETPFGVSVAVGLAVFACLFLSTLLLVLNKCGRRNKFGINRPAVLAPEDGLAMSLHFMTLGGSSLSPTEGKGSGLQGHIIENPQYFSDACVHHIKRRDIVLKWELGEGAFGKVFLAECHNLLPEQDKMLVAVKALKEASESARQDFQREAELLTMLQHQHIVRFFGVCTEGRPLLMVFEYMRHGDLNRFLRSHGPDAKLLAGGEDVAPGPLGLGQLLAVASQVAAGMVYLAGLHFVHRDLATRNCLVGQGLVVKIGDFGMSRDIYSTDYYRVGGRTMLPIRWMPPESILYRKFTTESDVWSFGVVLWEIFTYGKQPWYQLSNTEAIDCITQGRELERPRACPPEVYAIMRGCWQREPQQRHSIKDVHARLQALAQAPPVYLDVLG

IC50: ≤ 50 nM
SMILES: Cc1cc(NC(=O)N[C@@H]2c3cc(F)c(F)cc3C(C)(C)C[C@H]2O)c(-c2ccccc2)nc1-c1ccnc(CO)c1 (racemic) [Compound 56, rac-1-((1R,2R)-6,7-difluoro-2-hydroxy-4,4-dimethyl-1,2,3,4-tetrahydronaphthalen-1-yl)-3-(2′-(hydroxymethyl)-3-methyl-6-phenyl-[2,4′-bipyridin]-5-yl)urea]
